Drawing on patent US9499711B2, “Treatment liquid and recording method” (Seiko Epson Corporation, priority 2014, dated 2016), this text covers logP for 13 compounds.

Molecules are shown by their SMILES. Where two headings read alike, the source gives them in different places.

The series in a line: physchem.

By logP is commonly meant the decadic logarithm of the partition coefficient of the neutral form, usually between octanol and water. Consider `CCOCC(C)O` (centres unmarked) [propylene glycol monoethyl ether], for which the logP (log P value) worked out at 0.3.

For the compound `CCCOCC(C)O` (centres unmarked) [propylene glycol monopropyl ether], for the setting “log P value”, the logP was found to be 0.62.

`CCCCOCCOCCO` [diethylene glycol monobutyl ether] displayed a logP (log P value) of 0.56.

Take `CCOCCOCCOCCO` [Triethylene glycol monoethyl ether]: where the note is “logP value of organic compound”, the logP is -2.75.

For the setting “logP value of organic compound”, `CCCC(O)C(CC)CO` (centres unmarked) [2-Ethyl-1,3-hexane diol] gave a logP of 1.6.

Compound `CC(C)(O)CCO` [3-methyl-1,3-butanediol] gave a logP (log P value) of 0.16.

Regarding `CCCOC(C)COC(C)CO` (centres unmarked) [Dipropylene glycol monopropyl ether], the log partition coefficient (logP) (log P value) is 0.87 and the logP (logP value of organic compound) was 0.6.

`CCCCOCC(C)O` (centres unmarked) [propylene glycol monobutyl ether]: the logP (log P value) was 1.15.

With `CCCCOC(C)COC(C)COC(C)CO` (centres unmarked) [tripropylene glycol monobutyl ether], the log partition coefficient (logP) (log P value) was found to be 1.34.

Take `CCOCCOCCOCC` [diethylene glycol diethyl ether]: where the note is “log P value”, the logP is 0.39.

`CCCCCO` [1-pentanol] showed a log partition coefficient (logP) of 1.4.

`CCCCCCOCCO` [ethylene glycol monohexyl ether] showed a logP (log P value) of 1.7.

Under “log P value”, `CCCCCCOCCOCCO` [diethylene glycol monohexyl ether] displayed a logP of 1.7.
